Earlier results in patent US7348299B2, “Cleansing bar with distributed polymeric network providing enhanced delivery” (Conopco, Inc., priority 2005, dated 2008).

How the values were obtained:
[1] = single component of 1:1 model perfume; no unit in table, K in Atm
[2] = single component of 1:1 model perfume; first/second component

For C=CC(C)CCC=C(C)C (stereo not shown) [citronellene], the “K (volatility constant)” value [1] is given as 120 and the “φo/w (octanol/water partition coefficient)” value [2] is given as 43,651.

For CC(=O)OCc1ccccc1 [Benzyl acetate], the “K (volatility constant)” value [1] is listed as 0.32 and the “φo/w (octanol/water partition coefficient)” value [2] is listed as 81.

For Methyl ionone, the “K (volatility constant)” value [1] is listed as 5.2.

For CC(CC=O)CCCC(C)(C)O (stereo not shown) [hydroxycitonellal], the “K (volatility constant)” value [1] is given as 0.05 and the “φo/w (octanol/water partition coefficient)” value [2] is given as 34.7.

For CC1=CCC2CC1C2(C)C (stereo not drawn) [alpha-pinene], the “K (volatility constant)” value [1] is given as 280 and the “φo/w (octanol/water partition coefficient)” value [2] is given as 29648.

For CC=O [acetaldehyde], the “K (volatility constant)” value [1] is given as 0.008 and the “φo/w (octanol/water partition coefficient)” value [2] is given as 167.

In the case of Cc1ccc(C(C)C)cc1 [p-cymene], the “K (volatility constant)” value [1] is listed as 265 and the “φo/w (octanol/water partition coefficient)” value [2] is listed as 31,000.

In the case of OCCc1ccccc1 [Phenylethylalcohol], the “K (volatility constant)” value [1] is given as 0.1 and the “φo/w (octanol/water partition coefficient)” value [2] is given as 22.9.

In the case of C=C(C)[C@H]1CC=C(C)CC1 [Limonene], the “K (volatility constant)” value [1] is listed as 98.

In the case of CC(C=O)Cc1ccc(C(C)(C)C)cc1 (stereo not shown) [lilial], the “K (volatility constant)” value [1] is given as 0.42 and the “φo/w (octanol/water partition coefficient)” value [2] is given as 32,360.

For CC(=O)OCCC(C)CCC=C(C)C (stereo not shown) [citronellyl acetate], the “K (volatility constant)” value [1] is given as 6 and the “φo/w (octanol/water partition coefficient)” value [2] is given as 19,054.

In the case of CCC(C)(CCCC(C)C)OC(C)=O (stereo not shown) [Tetrahydrolinalylacetate], the “K (volatility constant)” value [1] is listed as 5.5 and the “φo/w (octanol/water partition coefficient)” value [2] is listed as 31,600.
